Results published in patent US20230057359A1, “NOVEL USE OF STEVIOL” (SUNTORY HOLDINGS LIMITED, priority 2019, published 2023).

Assays:
Assay type in all cases: cell-based
[1] = system: adipocytes differentiated from normal human subcutaneous preadipocytes; experiment: Sugar uptake test in adipocytes (intracellular 2DG6P, Glucose Uptake-Glo); details: 100 μM acadesine (AICAR), 4 hours, No addition=100%
Description: Normal human subcutaneous preadipocytes were precultured using the growth medium in the same manner as in Example 1. The cells were detached using 0.25% trypsin-EDTA, seeded at 10,000 cells/100 μL/well to a 96-well plate using the growth medium, and cultured overnight in a CO2 incubator. On the next day, the medium was replaced with the differentiation medium (100 μL). The cells were cultured for 10 days in a CO2 incubator to induce their differentiation into adipocytes. On the fourth and seventh days after the differentiation induction, the medium was replaced with a fresh differentiation medium (100 μL). Next, the medium was replaced with 100 μLL of a serum-free medium (PBM-2 medium supplemented with 2 mM L-glutamine, 50 μg/mL gentamycin, and 37 ng/mL amphotericin-B, Cat. No. PT-8002, Lonza Group AG), and the cells were cultured for 18 hours in a CO2 incubator. Subsequently, the medium was replaced with 100 μL of a glucose-free serum-free medium (DMEM, no glucose, Cat. No. 11966025, Thermo Fisher Scientific Inc.) supplemented with varying concentrations of steviol (10, 30 or 100 μg/mL, dissolved in 0.1% DMSO (final concentration)), and the cells were cultured for 4 hours in a CO2 incubator. A glucose-free serum-free medium supplemented with 100 μM acadesine (AICAR, Cat. No. A9978, Sigma-Aldrich Co., LLC) was used as a positive control, and a vehicle control composed of a glucose-free serum-free medium supplemented with 0.1% DMSO (final concentration) and a no-addition control composed of only a glucose-free serum-free medium were used as negative controls. After culture, intracellular 2-deoxyglucose-6-phosphate (2DG6P, 2-deoxyglucose (2DG) phosphorylation product) level was measured by the following procedures using Glucose Uptake-Glo Assay kit (Cat. No. J1341, Promega Corp.). The medium of each well was replaced with a DPBS solution (50 μL) supplemented with 1 mM 2DG. After incubation at room temperature for 10 minutes, a stop buffer (25 μL), a neutralization buffer (25 μL), and a 2DG6P detection reagent (100 μL) were added thereto. After incubation at room temperature for 60 minutes, luminescence intensity was measured using a plate reader (VARIOSKAN FLASH, Thermo Fisher Scientific Inc.), and relative luminescence intensity was regarded as a relative intracellular 2DG6P level. Significant difference among the test groups to be compared (no-addition group vs positive control group, vehicle control group vs steviol addition group) was tested by the Student's t test. The two-tailed test was conducted, and P<0.05 was regarded as having significant difference.

[2] = system: adipocytes differentiated from normal human subcutaneous preadipocytes; experiment: Lipolysis test in adipocytes (free glycerol in culture supernatant); details: 10 μM isoproterenol, 24 hours, No addition=100%
Description: Normal human subcutaneous preadipocytes were precultured using the growth medium in the same manner as in Example 1. The cells were detached using 0.25% trypsin-EDTA, seeded at 10,000 cells/100 μL/well to a 96-well plate using the growth medium, and cultured overnight in a CO2 incubator. On the next day, the medium was replaced with the differentiation medium (100 μL), and the cells were cultured for 10 days in a CO2 incubator to induce their differentiation into adipocytes. On the fourth and seventh days after the differentiation induction, the medium was replaced with a fresh differentiation medium (100 μL). Next, the medium was replaced with a differentiation medium supplemented with varying concentrations of steviol (10, 30 or 100 μg/mL, dissolved in 0.1% DMSO (final concentration)), and the cells were cultured for 24 hours in a CO2 incubator. Then, a free glycerol level in a culture supernatant was measured using Adipolysis Assay Kit (Cat. No. 10009381, Cayman Chemical Co.) according to the manufacturer's protocol. For the measurement, absorbance (540 nm) was measured using a plate reader (VARIOSKAN FLASH, Thermo Fisher Scientific Inc.), and a relative free glycerol concentration was calculated. A differentiation medium supplemented with 10 μM isoproterenol (ISP) was used as a positive control, and a vehicle control (DMSO) composed of a differentiation medium supplemented with 0.1% DMSO (final concentration) and a no-addition control composed of only the differentiation medium were used as negative controls. Significant difference among the test groups to be compared (no-addition group vs positive control group, vehicle control group vs steviol addition group) was tested by the Student's t test. The two-tailed test was conducted, and P<0.05 was regarded as having significant difference.

[3] = system: normal human subcutaneous preadipocytes differentiated into adipocytes; experiment: Fat accumulation test in adipocytes (oil red staining); details: 25 mM LiCl, 10 days, DMSO=100%
Description: Normal human subcutaneous preadipocytes were precultured using the growth medium in the same manner as in Example 1. The cells were detached using 0.25% trypsin-EDTA, seeded at 10,000 cells/100 μL/well to a 96-well plate using a growth medium, and cultured overnight in a CO2 incubator. On the next day, the medium was replaced with 100 μL of a differentiation medium supplemented with varying concentrations of steviol (12.5, 25, 50, 100 or 200 μg/mL, dissolved in 0.1% DMSO (final concentration)). The cells were cultured for 10 days in a CO2 incubator to induce their differentiation into adipocytes. On the fourth and seventh days after the differentiation induction, the medium was replaced with a fresh medium (100 μL) having the same composition as above. A differentiation medium supplemented with 25 mM LiCl (Cat. No. SML0559, Sigma-Aldrich Co., LLC) was used as a positive control, and a differentiation medium supplemented with 0.1% DMSO (final concentration) was used as a negative control. Cells cultured in a growth medium were used as an untreated control (Untreated). The cells thus cultured were subjected to oil red staining. Specifically, the cells were washed twice with 100 μL of DPBS (Cat. No. 14190250, Thermo Fisher Scientific Inc.). Then, the cells were fixed (room temperature, 10 min) in 100 μL of a 10% formalin solution (Cat. No. 061-00416, FUJIFILM Wako Pure Chemical Corp.). The cells were washed twice with 100 μL of DPBS, then incubated for 1 minute in 100 μL of 60% 2-propanol (Cat. No. 166-04836, FUJIFILM Wako Pure Chemical Corp.) that replaced the medium, and stained for 15 minutes in 100 μL of an oil red staining solution (Cat. No. 00625, Sigma-Aldrich Co., LLC) that replaced the 2-propanol solution. The cells were washed once with 100 μL of 60% 2-propanol and washed twice with 100 μL of DPBS. Then, cell images were taken in 100 μL of DPBS. After subsequent replacement with 120 μL of 100% 2-propanol, oil red was extracted by incubation for 5 minutes, and 100 μL of the extracts was transferred to each well of a fresh 96-well plate. Absorbance (520 nm) was measured using a plate reader (VARIOSKAN FLASH, Thermo Fisher Scientific Inc.), and a relative fat accumulation level was calculated. Significant difference of differentiation non-induced group vs differentiation induced group (negative control group) was tested (two-tailed), and P<0.05 was regarded as having significant difference. Also, significant difference of negative control group vs steviol addition group/positive control group was tested (two-tailed) by the Dunnett test, and P<0.05 was regarded as having significant difference.

[4] = system: HepG2 cells; experiment: TG accumulation test in hepatocytes (Adipogenesis Assay Kit, oleic acid); details: 2 mM metformin, 0.2 mM oleic acid, 24 hours, DMSO=100%
Description: HepG2 cells were precultured using the growth medium in the same manner as in Example 5. The cells were detached using 0.25% trypsin-EDTA, seeded at 30,000 cells/100 μL/well to a 96-well plate using the growth medium, and cultured overnight in a CO2 incubator. On the next day, the medium was replaced with 100 μL of a test medium (DMEM (high glucose) supplemented with 0.2 mM oleic acid (Cat. No. 03008, Sigma-Aldrich), 10% FBS and 1% penicillin-streptomycin) supplemented with varying concentrations of steviol (12.5, 25, 50, 100 or 200 μg/mL, dissolved in 0.1% DMSO (final concentration)). The cells were cultured for 24 hours in a CO2 incubator. A test medium supplemented with 2 mM metformin (Cat. No. M2009, Tokyo Chemical Industry Co., Ltd.) was used as a positive control (Metformin), and a vehicle control composed of a test medium supplemented with 0.1% DMSO (final concentration) was used as a negative control (DMSO). Cells cultured in a test medium containing no oleic acid was used as an untreated control (Untreated). The cells thus cultured were subjected to oil red staining in the same manner as in Example 3, followed by photographing and calculation of a relative fat accumulation level. An intracellular triglyceride (TG) level in cells separately cultured under the same conditions as in the cells employed in the oil red staining was quantified using Adipogenesis Assay Kit (BioVision Inc.) according to the manufacturer's protocol. Absorbance (570 nm) was measured using a plate reader (VARIOSKAN FLASH, Thermo Fisher Scientific Inc.), and a relative TG level was calculated. Significant difference of untreated group vs fat accumulation induction group (negative control group) was tested (two-tailed) by the Student's t test as to the relative fat accumulation level and the relative TG level, and P<0.05 was regarded as having significant difference. Also, significant difference of negative control group vs steviol addition group/positive control group was tested (two-tailed) by the Dunnett test, and P<0.05 was regarded as having significant difference. The results of the fat accumulation test are shown in Table 6 and FIG. 6, and the results of the TG accumulation test are shown in Table 7 and FIG. 7.

[5] = system: HepG2 cells; experiment: Fat accumulation test in hepatocytes (oil red staining, oleic acid); details: 2 mM metformin, 0.2 mM oleic acid, 24 hours, DMSO=100%
Description: Normal human subcutaneous preadipocytes were precultured using the growth medium in the same manner as in Example 1. The cells were detached using 0.25% trypsin-EDTA, seeded at 10,000 cells/100 μL/well to a 96-well plate using a growth medium, and cultured overnight in a CO2 incubator. On the next day, the medium was replaced with 100 μL of a differentiation medium supplemented with varying concentrations of steviol (12.5, 25, 50, 100 or 200 μg/mL, dissolved in 0.1% DMSO (final concentration)). The cells were cultured for 10 days in a CO2 incubator to induce their differentiation into adipocytes. On the fourth and seventh days after the differentiation induction, the medium was replaced with a fresh medium (100 μL) having the same composition as above. A differentiation medium supplemented with 25 mM LiCl (Cat. No. SML0559, Sigma-Aldrich Co., LLC) was used as a positive control, and a differentiation medium supplemented with 0.1% DMSO (final concentration) was used as a negative control. Cells cultured in a growth medium were used as an untreated control (Untreated). The cells thus cultured were subjected to oil red staining. Specifically, the cells were washed twice with 100 μL of DPBS (Cat. No. 14190250, Thermo Fisher Scientific Inc.). Then, the cells were fixed (room temperature, 10 min) in 100 μL of a 10% formalin solution (Cat. No. 061-00416, FUJIFILM Wako Pure Chemical Corp.). The cells were washed twice with 100 μL of DPBS, then incubated for 1 minute in 100 μL of 60% 2-propanol (Cat. No. 166-04836, FUJIFILM Wako Pure Chemical Corp.) that replaced the medium, and stained for 15 minutes in 100 μL of an oil red staining solution (Cat. No. 00625, Sigma-Aldrich Co., LLC) that replaced the 2-propanol solution. The cells were washed once with 100 μL of 60% 2-propanol and washed twice with 100 μL of DPBS. Then, cell images were taken in 100 μL of DPBS. After subsequent replacement with 120 μL of 100% 2-propanol, oil red was extracted by incubation for 5 minutes, and 100 μL of the extracts was transferred to each well of a fresh 96-well plate. Absorbance (520 nm) was measured using a plate reader (VARIOSKAN FLASH, Thermo Fisher Scientific Inc.), and a relative fat accumulation level was calculated. Significant difference of differentiation non-induced group vs differentiation induced group (negative control group) was tested (two-tailed), and P<0.05 was regarded as having significant difference. Also, significant difference of negative control group vs steviol addition group/positive control group was tested (two-tailed) by the Dunnett test, and P<0.05 was regarded as having significant difference. […] HepG2 cells were precultured using the growth medium in the same manner as in Example 5. The cells were detached using 0.25% trypsin-EDTA, seeded at 30,000 cells/100 μL/well to a 96-well plate using the growth medium, and cultured overnight in a CO2 incubator. On the next day, the medium was replaced with 100 μL of a test medium (DMEM (high glucose) supplemented with 0.2 mM oleic acid (Cat. No. 03008, Sigma-Aldrich), 10% FBS and 1% penicillin-streptomycin) supplemented with varying concentrations of steviol (12.5, 25, 50, 100 or 200 μg/mL, dissolved in 0.1% DMSO (final concentration)). The cells were cultured for 24 hours in a CO2 incubator. A test medium supplemented with 2 mM metformin (Cat. No. M2009, Tokyo Chemical Industry Co., Ltd.) was used as a positive control (Metformin), and a vehicle control composed of a test medium supplemented with 0.1% DMSO (final concentration) was used as a negative control (DMSO). Cells cultured in a test medium containing no oleic acid was used as an untreated control (Untreated). The cells thus cultured were subjected to oil red staining in the same manner as in Example 3, followed by photographing and calculation of a relative fat accumulation level. […]

In the case of NC(=O)c1ncn([C@@H]2O[C@H](CO)[C@@H](O)[C@H]2O)c1N [AICAR, acadesine, reference compound], the “Relative luminescence intensity (%) (relative intracellular 2DG6P level)” value [1] is reported as 194.9%.

CC(C)NCC(O)c1ccc(O)c(O)c1 (centres unmarked) [ISP, isoproterenol, reference compound] was tested, and the “Relative lipolysis level (%)” value [2] was 184.4%.

With [Cl-].[Li+] [LiCl, reference compound] the “Relative fat accumulation level (%)” value [3] was 56.3%.

With CN(C)C(=N)N=C(N)N [Metformin, metformin, reference compound] the “Relative TG level (%)” value [4] was 76.0% and the “Relative fat accumulation level (%)” value [5] was 79.4%.
